Laboratory results published in patent US10688146B2, “Curcuma mangga val et. zipp. extract as a treatment to overcome prostate problems” (PT DEXA MEDICA, priority 2013, dated 2020).

Columns and labels:
[1] = system: DHT; test: DHT quantification with Elisa kit in PC3 cells treated with excessive testosterone; assay type: cell-based, human; details: PC3 cells with excessive testosterone 8.8 μg/ml, finasteride 2 μg/ml (positive control)
Procedure: Total protein was isolated after 24 hours treatment with the extract of Curcuma mangga Val. et Zipp. The isolation was performed using Lysis Buffer and TRIzol method. The result of total protein isolation further was calculated using Lowry method. Protein that was obtained subsequently was used as a sample for Western Blot against 5-alpha-reductase and DHT, and the DHT test using Elisa kit Alpha Diagnostic International. The analytical process of semi-Western Blot was performed in accordance to the general method, which is using specific antibody for 5-alpha-reductase-1 and DHT. The detection of Western Blot was performed using HRP-conjugated (Horseradish Peroxidase) secondary antibody and coloring with luminol.
Quantitative analysis was performed using Elisa kit in accordance to the protocol provided by the manufacturer. PC3 cells that were used in this present invention was treated with excessive testosterone which is 8.8 μg/ml, and was treated with 150 μg/ml Curcuma mangga Val. et Zipp extract and 2 μg/ml finasteride, in separate groups. In this present invention, the finasteride treatment group was a positive control.

[2] = system: male rats (Rattus norvegicus) Wistar strain with induced prostate gland growth; test: Inhibition of prostate gland growth in castrated, testosterone-induced rats; assay type: in vivo; details: finasteride 1 mg/kg
Procedure: Animals that were used in the present invention were male rats (Rattus norvegicus) Wistar strain weighing between 200-250 grams from Indoanilab, Bogor, Indonesia. The animals were bred in special cages, in groups, with a normal light setting, which are 12 hours of light and 12 hours of dark and received food and drinking water ad libitum.
The animals were divided into five groups: sham-operated group (normal group), negative control group that is BPH group without any treatment, positive control group that is treated with finasteride 1 mg/kg of body weight, and treatment group which divided into two groups based on the dose of Curcuma mangga Val. et Zipp. extract that they received, namely 92.37 mg/kg and 184.74 mg/kg of body weight. In all animals the growth of its prostate gland were induced, except for the animals in the sham-operated group.
Those rats were induced with subcutaneous administration of testosterone injection to stimulate the growth of prostate gland at the dose of 10 mg/kg body weight, every day for 7 days. The administration of testosterone injection was performed after the removal of testes (castration) and sham surgery in rats. The castration procedures were performed to avoid bias caused by the differences of testosterone amount produced by each individual rat.

CC(C)(C)NC(=O)[C@H]1CC[C@H]2[C@@H]3CC[C@H]4NC(=O)C=C[C@]4(C)[C@H]3CC[C@]12C [finasteride]
DHT levels (Elisa kit) [1]: reduced levels of DHT
DHT plasma concentration [2]: suppression of DHT plasma concentration
